Patent US20090082329A1 (AVENTIS PHARMA S.A., priority 2006, published 2009)
Where two headings read alike, the source gives them in different places.

Columns and labels:
[1] = molecular target: T1, human cytoplasmic domain of IGF-1R (Homo sapiens, UniProt P08069); assay: Kinase IGF-1R test: inhibition of autophosphorylation of the enzyme (HTRF); format: biochemical; conditions: ATP 120 μM
T1 construct: The human cytoplasmic domain of IGF-1R was cloned by fusion with glutathione S-transferase (GST); made in house; host or cells: SF21 insect cells (baculovirus, pFastBac-GST)
How it was run: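 GST-fused human IGF-1R cytoplasmic domain from Sf21 cells (5 nM) preincubated with 1/3-step compound dilutions for 30 or 90 min in pH 7.5 Hepes/MnCl2 buffer, ≤1% DMSO. Autophosphorylation started with 120 μM ATP, stopped after 5 min; HTRF (anti-GST XL665/Eu-anti-phosphotyrosine) read, IC50 from inhibition vs log concentration.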

[2] = tested on: MEF-IGF1R cells; assay: Proliferation/viability of MEF-IGF1R (Thymidine [14C] incorporation); format: cell-based; conditions: rhIGF1 100 ng/mL, incubation 72 hours, read-out: Test C IC50
How it was run: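 Serum-starved (24 h) MEF cells stably expressing human IGF-1R were exposed to compound with rhIGF1 (100 ng/mL) and [14C]thymidine for 72 h at 37 °C. Incorporation counted by scintillation; IC50 from 10 concentrations in duplicate, normalised to IGF1-stimulated (100%) and unstimulated (0%) controls, non-linear regression.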

[3] = molecular target: T2, IGF-1R in MCF7 cells (Homo sapiens, UniProt P08069); assay: Autophosphorylation of IGF-1R in MCF7 cells after stimulation with IGF-1 (ELISA); format: cell-based; set-up: The autophosphorylation of IGF1R in the IGF1-induced cells is evaluated by means of an ELISA technique; endogenous in cells; host or cells: MCF-7 cells; conditions: MCF-7 cells, compound added one hour before stimulation with IGF1; read-out: Test B IC50
Procedure: B) Measurement of the Autophosphorylation of IGF-1R in MCF7 Cells after Stimulation with IGF-1
Cell Culturing and Execution of the Test:
The autophosphorylation of IGF1R in the IGF1-induced cells is evaluated by means of an ELISA technique (Enzyme Linked ImmunoSorbent Assay). The MCF-7 are seeded at 60 000 cells per well in 6-well plates and incubated at 37° C., 5% CO2 in medium containing 10% serum. After one night in 10% serum, the cells are deprived of serum for 24 hours. The compounds are added to the medium one hour before stimulation with IGF1. After 10 minutes of stimulation with IGF1, the cells are lysed with a buffer (Hepes 50 mM pH 7.6, Triton X100 1%, orthovanadate 2 mM, protease inhibitor cocktail). The cell lysates are incubated on a 96-well plate precoated with an anti-IGF1R antibody, followed by incubation with an anti-phosphotyrosine antibody coupled to the enzyme peroxidase. The level of peroxidase activity (measured by OD with a luminescent substrate) reflects the phosphorylation status of the receptor.
(i) The tests are performed in duplicate and the mean of the two tests is calculated.
(ii) The value of the signal of the maximum response is calculated from the positive control: cells stimulated with IGF1 without compound.
(iii) Value of the signal of the minimum response is calculated from the negative control: cells not stimulated with IGF1 without compound. […]

[4] = molecular target: T2, IGF-1R in MCF7 cells; assay: as above; format: cell-based; set-up: endogenous in cells; host or cells: MCF-7 cells; conditions: MCF-7 cells, compound added one hour before stimulation with IGF1; read-out: Test B IC50
How it was run: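 MCF-7 cells serum-starved 24 h, given compound 1 h before 10 min IGF-1 stimulation, then lysed. Phospho-IGF-1R captured by anti-IGF-1R and detected with peroxidase anti-phosphotyrosine, luminescent read-out; duplicates normalized to stimulated (100%) and unstimulated (0%) controls, IC50 by non-linear regression.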

[5] = preincubation 30 minutes with 5 nM enzyme, read-out: Test A 30′ IC50
[6] = preincubation 90 minutes with 5 nM enzyme, read-out: Test A 90′ IC50

T1 sequence (P08069 960-1367 limits assumed): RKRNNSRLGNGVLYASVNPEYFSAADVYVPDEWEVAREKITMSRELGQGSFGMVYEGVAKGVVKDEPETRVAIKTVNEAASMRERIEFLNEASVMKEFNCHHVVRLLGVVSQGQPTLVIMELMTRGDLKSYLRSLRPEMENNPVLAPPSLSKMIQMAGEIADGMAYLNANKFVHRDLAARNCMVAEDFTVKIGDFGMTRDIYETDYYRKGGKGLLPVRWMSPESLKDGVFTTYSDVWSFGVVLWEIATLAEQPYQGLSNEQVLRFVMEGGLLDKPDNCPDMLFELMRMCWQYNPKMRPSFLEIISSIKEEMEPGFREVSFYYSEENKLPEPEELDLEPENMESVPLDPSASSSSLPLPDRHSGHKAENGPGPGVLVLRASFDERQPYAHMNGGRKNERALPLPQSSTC
T2 sequence (P08069 31-1367): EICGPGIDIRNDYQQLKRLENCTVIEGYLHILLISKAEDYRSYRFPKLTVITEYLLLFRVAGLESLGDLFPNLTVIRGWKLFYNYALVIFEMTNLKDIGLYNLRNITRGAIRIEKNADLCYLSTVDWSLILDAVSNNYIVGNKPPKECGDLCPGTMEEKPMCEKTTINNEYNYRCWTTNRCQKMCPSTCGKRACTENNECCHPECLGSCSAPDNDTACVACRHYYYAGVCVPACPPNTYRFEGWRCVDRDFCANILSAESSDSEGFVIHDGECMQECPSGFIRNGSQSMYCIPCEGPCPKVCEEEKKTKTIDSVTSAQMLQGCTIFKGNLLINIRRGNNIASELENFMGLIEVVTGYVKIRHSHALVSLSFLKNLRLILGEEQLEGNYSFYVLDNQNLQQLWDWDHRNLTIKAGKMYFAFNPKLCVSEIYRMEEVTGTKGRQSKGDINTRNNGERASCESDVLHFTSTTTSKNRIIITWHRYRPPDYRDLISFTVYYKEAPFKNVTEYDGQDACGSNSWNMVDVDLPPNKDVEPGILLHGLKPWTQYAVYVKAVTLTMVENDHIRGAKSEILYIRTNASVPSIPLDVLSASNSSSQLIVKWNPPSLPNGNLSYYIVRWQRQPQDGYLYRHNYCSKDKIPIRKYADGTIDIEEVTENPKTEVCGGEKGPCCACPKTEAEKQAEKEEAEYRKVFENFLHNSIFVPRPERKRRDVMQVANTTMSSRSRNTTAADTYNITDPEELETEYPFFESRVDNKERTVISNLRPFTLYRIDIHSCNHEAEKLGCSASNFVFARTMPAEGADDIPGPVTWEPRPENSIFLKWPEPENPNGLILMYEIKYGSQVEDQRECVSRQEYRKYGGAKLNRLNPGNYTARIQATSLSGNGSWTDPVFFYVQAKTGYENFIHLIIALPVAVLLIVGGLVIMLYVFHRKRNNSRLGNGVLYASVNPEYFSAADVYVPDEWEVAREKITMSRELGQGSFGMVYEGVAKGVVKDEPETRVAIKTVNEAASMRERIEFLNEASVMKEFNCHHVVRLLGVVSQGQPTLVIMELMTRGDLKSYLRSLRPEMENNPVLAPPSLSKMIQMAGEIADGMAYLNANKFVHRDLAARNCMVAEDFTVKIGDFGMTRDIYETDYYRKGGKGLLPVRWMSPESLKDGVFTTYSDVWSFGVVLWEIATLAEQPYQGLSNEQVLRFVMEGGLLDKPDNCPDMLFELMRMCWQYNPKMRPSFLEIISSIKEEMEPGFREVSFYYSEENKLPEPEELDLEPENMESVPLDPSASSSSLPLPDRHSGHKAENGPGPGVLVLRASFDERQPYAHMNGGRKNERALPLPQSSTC

Row | SMILES | IC50 [1, 5] | IC50 [1, 6] | IC50 [2] | IC50 [3] | IC50 [4]
1 | CC1(C)C(=O)N(c2ccc(SC(F)(F)F)cc2)C(=O)N1Cc1ccnc(NC(N)=O)c1 [Example 40A] | 0.01 to 0.1 µM | < 0.01 µM | 0.01 to 0.1 µM | < 0.01 µM | 
2 | CC1(C)C(=O)N(c2ccc(SC(F)(F)F)cc2)C(=O)N1Cc1ccnc(Nc2cccnc2Cl)c1 [Example 40E, 1-({2-[(2-chloropyridin-3-yl)amino]pyridin-4-yl}-methyl)-5,5-dimethyl-3-{4-[(trifluoromethyl)thio]phenyl}imidazolidine-2,4-dione] | 0.01 to 0.1 µM | 0.01 to 0.1 µM | 0.01 to 0.1 µM |  | 0.01 to 0.1 µM
3 | CC1(C)C(=O)N(c2ccc(SC(F)(F)F)cc2)C(=O)N1Cc1ccnc(Nc2ccc(Cl)nc2)c1 [Example 40F, 1-({2-[(6-chloropyridin-3-yl)amino]pyridin-4-yl}-methyl)-5,5-dimethyl-3-{4-[(trifluoromethyl)thio]phenyl}imidazolidine-2,4-dione] | > 0.1 µM | 0.01 to 0.1 µM | > 0.1 µM |  | > 0.1 µM
4 | CC1(C)C(=O)N(c2ccc(SC(F)(F)F)cc2)C(=O)N1Cc1ccnc(Nc2ccc(O)nc2)c1 [Example 40G, 1-({2-[(6-hydroxypyridin-3-yl)amino]pyridin-4-yl}-methyl)-5,5-dimethyl-3-{4-[(trifluoromethyl)thio]phenyl}imidazolidine-2,4-dione] | 0.01 to 0.1 µM | 0.01 to 0.1 µM | > 0.1 µM |  | 0.01 to 0.1 µM
5 | COC(=O)Nc1cc(CN2C(=O)N(c3ccc(SC(F)(F)F)cc3)C(=O)C2(C)C)ccn1 [Example 40L, methyl {4-[(5,5-dimethyl-2,4-dioxo-3-{4-[(tri-fluoromethyl)thio]phenyl}imidazolidin-1-yl)methyl]pyridin-2-yl}carbamate] | 0.01 to 0.1 µM | < 0.01 µM | > 0.1 µM |  | 0.01 to 0.1 µM
